Source: US20140348958A1, “Anticancer Active Ingredient From Guiera Senegalensis” (UNIVERSITE D'AUVERGNE CLERMONT I, priority 2011, published 2014)
Values joined by “and” are separate entries in the source; they are usually repeats but may differ in a detail not shown here. Equal values may be shown once. Read-outs that look alike come from different tables or passages of the source.

Tested on: mammary cancer cells MCF-7
Experiment: Proliferation measurement of mammary cancer cells MCF-7 (resazurin, 72 hrs exposure)
Format: cell-based
Conditions: for IC50: Homo sapiens; for Inhibition percentage: screening, single values and Averages
Procedure: Detailed Procedure of the Proliferation Measurement of Mammary Cancer Cells MCF-7
1st Part Day 1: Sowing the Cells
1. Preparation of the Medium:
• Preparation of the volume to be put into the plates:
In a 50 mL Falcon, prepare 30 mL of complete RPMI with 10% FCS and 1% Glutamine: 27 mL of RPMI: 3 mL of FCS and 300 μL of Glutamine.
2. Preparation of the Cell Suspension:
• Suck up the medium contained in the flask with the vacuum pump • Rinse with 3 mL of PBS and suck up with the vacuum pump • Add 1 mL of trypsin and let it act for 3 mins in the oven at 37° C. in order to detach the cells. • When the cells are detached, add 2 mL of complete medium prepared previously for inactivating the trypsin. • Mix well the suspension by suction-discharge and transfer into a well-defined Falcon 15. • Count the cells in a Malassez cell: carry out dilution to one 20th for counting them with Trypan blue.
• Sow the plates with 200 μL of cell suspension according to the determined scheme • Put 200 μL of water in the peripheral wells • Leave for incubation for 24 hours.
2nd Part: Day 2, the Extract is Exposed
4. Preparation of the Medium:
A total of 45 mL of medium to be prepared in a Falcon 50 sterilized i.e. 40.5 mL of RPMI+4.5 mL of FCS+450 μL of glutamine
5. Preparation of the Extracts:
• prepare a 10 mg/mL solution: • Dissolve 8.1 mg of crude extract (noted as SF) according to Example 1, of the SF 5 fraction according to Example 2 or of the KP-18^E fraction (Guieranone B) in 810 μL of DMSO • Prepare the mother solution of extract (Ex) at 100 μg/mL i.e. 50 μL of (10 mg/ml) in 4,950 μL of RPMI • Produce the range of extracts (for 1 extract and only 1 range). • Remove the medium in the plates and add 200 μL per well of an extract range (one column per concentration). • Incubate the plates in the oven at 37° C. for 72 hrs.
6. Prepare Resazurin (Developer) and Read the Plate to
2 columns of cells+one column of resazurin alone=3 columns
200 μL/well×3 columns×6 lines=3,600 μL (total volume to be prepared: 5 mL) • Prepare 4.9 mL of medium+100 μL resazurin
Remove the medium and add 200 μL of (medium+resazurin) per well. • Incubate for 2 hours and read with fluorskan. 3rd Part: Measurement of Proliferation at 24 Hours (for t0), 72 Hrs for Extract • For the extract at 72 hrs:
200 μL/well×18 columns×6 lines (total volume to be prepared: 25 mL) • Prepare 24.5 mL of RPMI+500 μL of resazurin • Remove the medium and add 200 μL of (medium+resazurin) per well. • After 2 hours, readout with fluorskan.

[1] = MCF7, MCF-7 mammary cancer cell line, same conditions (Table 2), read-out: Average Cl50 in μM
[2] = MCF7, MCF-7 mammary cancer cell line, same conditions (Table 2), read-out: Average Cl50 in μg/mL
[3] = MCF7, mammary cancer line MCF-7, same conditions (Table 15, identical with Table 2), read-out: Average CI50 in μM
[4] = MCF7, mammary cancer line MCF-7, same conditions (Table 15, identical with Table 2), read-out: Average CI50 in μg/mL

IC50 [1] | IC50 [2] | IC50 [3] | IC50 [4] | IC50 (MCF7, 72 h, KP-18E, MCF-7, 72 hrs, average of the 6 tests, read-out: Average C150) | IC50 (MCF7, 72 h, KP-18E, MCF-7, 72 hrs, each of the 6 tests (1-2, N1-N3), read-out: CI50 (the source's name)) | SMILES | Inhibition percentage (KP-18E 1.5 μg/mL, MCF-7, 72 hrs) | Inhibition percentage (KP-18E 1.5 μg/mL, MCF-7, 72 hrs, mean) | Inhibition percentage (KP-18E 2 μg/mL, MCF-7, 72 hrs) | Inhibition percentage (KP-18E 2 μg/mL, MCF-7, 72 hrs, mean) | Inhibition percentage (KP-18E 2.5 μg/mL, MCF-7, 72 hrs) | Inhibition percentage (KP-18E 2.5 μg/mL, MCF-7, 72 hrs, mean) | Inhibition percentage (KP-18E 3 μg/mL, MCF-7, 72 hrs) | Inhibition percentage (KP-18E 3 μg/mL, MCF-7, 72 hrs, mean) | Inhibition percentage (KP-18E 4 μg/mL, MCF-7, 72 hrs) | Inhibition percentage (KP-18E 4 μg/mL, MCF-7, 72 hrs, mean) | Inhibition percentage (KP-18E 5 μg/mL, MCF-7, 72 hrs) | CI50 (KP-18E, MCF-7, 72 hrs, each of the 6 tests (1-2, N1-N3)) | antiproliferative activity (in words) (line of mammary cancer cells MCF-7)
4.04 ± 0.39 µM | 0.53 ± 0.05 µg/mL | 4.04 ± 0.39 µM | 0.53 ± 0.05 µg/mL | – | – | O=c1[nH]cc(F)c(=O)[nH]1 [5-FU, 5-Fluorouracil, reference compound] | – | – | – | – | – | – | – | – | – | – | – | – | –
7.09 µM | 2.24 ± 0.13 µg/mL | 7.09 µM | 2.24 ± 0.13 µg/mL | 2.25 µg/mL | 2.05 µg/mL | C/C=C/C(=O)C1=CC(OC)=C2C(=O)C(OC)=CC(OC)=C2C1=O [Guieranone B] | 49.86% and 36.10% and 48.15% and 50.66% and 53.59% and 53.16% | 48.59% | 68.59% and 62.54% and 43.35% and 59.58% and 61.13% and 48.79% | 57.33% | 69.73% and 57.84% and 59.61% and 65.92% and 65.73% and 68.02% | 64.48% | 94.22% and 77.40% and 86.16% and 83.19% and 84.81% and 92.10% | 86.31% | 100.00% and 99.38% | 99.90% | 100.00% | 2.7202 µg/mL and 2.1664 µg/mL and 2.5518 µg/mL and 2.067 µg/mL and 1.9176 µg/mL | high antiproliferative activity
